Measured values taken from patent publication US12358948B2, “Neurotensinergic agonists and methods of using same preventing or treating pain” (priority 2019, dated 2025).
*1 amine or outer side, *2 acyl side, *3 side chain or, on linkers, in order; H or OH if unused. Where a SMILES comes first, the peptide text is derived from it. Bridges are numbered along the chain shown (N, C = ends). [ ]: non-standard residue; d: D form. X1 = O=C(C1C[C@@H]2CCCC[C@@H]2N1[*:1])[*:2]; Phe(3-Br) = N[C@@H](Cc1cccc(Br)c1)C(=O)O; Ala(cPent) = N[C@@H](CC1CCCC1)C(=O)O; tBuAla = CC(C)(C)C[C@H](N)C(=O)O; 2Pal = N[C@@H](Cc1ccccn1)C(=O)O; 3Pal = N[C@@H](Cc1cccnc1)C(=O)O; dAllylGly = C=CC[C@@H](N)C(=O)O; AllylGly = C=CC[C@H](N)C(=O)O; Pen = CC(C)(S)[C@H](N)C(=O)O; R5 = C=CCCC[C@@](C)(N)C(=O)O; hLys = NCCCCC[C@H](N)C(=O)O; Nle = CCCC[C@H](N)C(=O)O; Orn = NCCC[C@H](N)C(=O)O; Dab = NCC[C@H](N)C(=O)O; Nva = CCC[C@H](N)C(=O)O

Assays:
hNTS1 receptor = molecular target: T1, hNTS1 receptor (Homo sapiens, UniProt P30989); test: Competitive radioligand binding assay on the hNTS1 receptor; details: displacement of 125I-[Tyr3]-NT, membranes of CHO-K1 cells expressing hNTS1; read-out: IC50 NTS1
T1 construct: membranes prepared from them
T1 sequence (P30989 whole entry): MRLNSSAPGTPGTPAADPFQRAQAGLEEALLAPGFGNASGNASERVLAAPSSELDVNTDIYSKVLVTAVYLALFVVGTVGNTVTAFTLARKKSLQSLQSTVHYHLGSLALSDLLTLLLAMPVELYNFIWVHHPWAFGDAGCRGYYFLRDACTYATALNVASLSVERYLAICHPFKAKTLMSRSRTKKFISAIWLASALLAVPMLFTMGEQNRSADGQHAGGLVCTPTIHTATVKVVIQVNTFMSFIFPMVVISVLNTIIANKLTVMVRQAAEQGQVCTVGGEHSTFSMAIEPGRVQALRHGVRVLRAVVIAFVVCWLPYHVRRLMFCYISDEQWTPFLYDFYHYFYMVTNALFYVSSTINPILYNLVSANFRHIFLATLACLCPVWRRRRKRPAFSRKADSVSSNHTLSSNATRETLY
Summary of the method: (§1)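 Membranes from CHO-K1 cells expressing hNTS1 (15 µg, […] ¹²⁵I-[Tyr³]-NT) or 1321N1 cells expressing hNTS2 (50 µg, […] radioligand) were incubated with analogues at 10⁻¹¹–10⁻⁴ M for 60 min at 25 °C in Tris-HCl pH 7.5/0.2% BSA. Filtration and γ-counting followed; nonspecific binding was defined with 10⁻⁵ M NT(8-13), and IC50 was obtained by one-site fit.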

hNTS2 receptor = molecular target: T2, hNTS2 receptor (Homo sapiens, UniProt O95665); test: Competitive radioligand binding assay on the hNTS2 receptor; details: for IC50: displacement of 125I-[Tyr3]-NT, membranes of 1321N1 cells expressing hNTS2, read-out: IC50 NTS2 (converted); for Selectivity: ratio IC50 for NTS1 : IC50 for NTS2
T2 construct: membranes prepared from them
T2 sequence (O95665 whole entry): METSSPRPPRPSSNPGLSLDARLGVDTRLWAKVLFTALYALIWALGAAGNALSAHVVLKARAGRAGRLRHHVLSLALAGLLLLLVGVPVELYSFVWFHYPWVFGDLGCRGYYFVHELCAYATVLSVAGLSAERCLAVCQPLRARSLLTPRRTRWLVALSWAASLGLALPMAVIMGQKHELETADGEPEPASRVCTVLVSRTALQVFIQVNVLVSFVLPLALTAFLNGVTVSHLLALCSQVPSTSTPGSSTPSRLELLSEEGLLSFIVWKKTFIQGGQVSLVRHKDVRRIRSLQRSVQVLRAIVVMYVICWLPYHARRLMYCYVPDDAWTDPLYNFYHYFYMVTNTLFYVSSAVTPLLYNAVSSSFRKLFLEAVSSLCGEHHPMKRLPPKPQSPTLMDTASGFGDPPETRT
Summary of the method: as §1

SMILES | IC50 (hNTS1 receptor) [nM] | IC50 (hNTS2 receptor) [nM] | Selectivity (hNTS2 receptor)
CC(C)C[C@H](NC(=O)[C@H](Cc1cccnc1)NC(=O)[C@@H]1CC=CC[C@H](N)C(=O)N[C@@H](CCCCN)C(=O)N[C@@H](CCCCN)C(=O)N1)C(=O)O [compound 169, c[G(All)KKG(All)]A(3-pyridyl)L] (H-[AllylGly]KK[AllylGly][3Pal]L-OH; staple 1-4) | > 100000 | 234 | 427
CC(C)(C)C[C@H](NC(=O)[C@H](Cc1ccc(O)cc1)NC(=O)[C@@H]1CC=CC[C@H](N)C(=O)N[C@@H](CCCCN)C(=O)N[C@@H](CCCCN)C(=O)N1)C(=O)O [compound 49, c[G(All)KKG(All)]YNpg] (H-[AllylGly]KK[AllylGly]Y[tBuAla]-OH; staple 1-4) | > 100000 | 44.4 | >2252
CC(C)C[C@H](NC(=O)[C@H](Cc1ccc(O)cc1)NC(=O)[C@@H]1CC=CC[C@H](N)C(=O)N[C@@H](CCCN)C(=O)N[C@@H](CCCCN)C(=O)N1)C(=O)O [compound 79, c[G(All)OrnKG(All)]YL] (H-[AllylGly][Orn]K[AllylGly]YL-OH; staple 1-4) | > 100000 | 77.5 | >1291
CC(C)C[C@H](NC(=O)C1C[C@@H]2CCCC[C@@H]2N1C(=O)[C@@H]1CC=CC[C@H](N)C(=O)N[C@@H](CCCCN)C(=O)N[C@@H](CCCCN)C(=O)N1)C(=O)O (stereo partly drawn) [compound 166, c[G(All)KKG(All)p (octahydroindol)L] (H-[AllylGly]KK[AllylGly][X1]L-OH; staple 1-4) | > 100000 | 33.3 | 3006
CC(C)C[C@H](NC(=O)[C@H](Cc1ccc(O)cc1)NC(=O)[C@@H]1CC=CC[C@H](N)C(=O)N[C@H](Cc2c[nH]cn2)C(=O)N[C@@H](CCCCN)C(=O)N1)C(=O)O [compound 84, c[G(All)H*KG(All)]YL] (H-[AllylGly][dH]K[AllylGly]YL-OH; staple 1-4) | > 100000 | 646 | >154.9
CC(C)C[C@H](NC(=O)[C@H](Cc1ccc(Br)cc1)NC(=O)C1(C)CCCC=CCCC(=O)N[C@@H](CCCCN)C(=O)N[C@@H](CCCCN)C(=O)N1)C(=O)O (stereo partly drawn) [compound 136, c[PentenoylKKG(alpha-Me-(4-pentenyl))]F(4-bromo)L] | > 100000 | 37.7 | 2653
CC(C)C[C@H](NC(=O)[C@H](Cc1cccc(Br)c1)NC(=O)[C@@H]1CC=CC[C@H](N)C(=O)N[C@@H](CCCCN)C(=O)N[C@@H](CCCCN)C(=O)N1)C(=O)O [compound 115, c[G(All)KKG(All)]F(3-bromo)L] (H-[AllylGly]KK[AllylGly][Phe(3-Br)]L-OH; staple 1-4) | > 100000 | 28.4 | >3523
CCC[C@H](NC(=O)[C@H](Cc1ccc(O)cc1)NC(=O)[C@@H]1CC=CC[C@H](N)C(=O)N[C@@H](CCCCN)C(=O)N[C@@H](CCCCN)C(=O)N1)C(=O)O [compound 29, c[G(All)KKG(All)]YNva] (H-[AllylGly]KK[AllylGly]Y[Nva]-OH; staple 1-4) | > 100000 | 3300 | >30.3
CC(C)C[C@H](NC(=O)[C@H](Cc1ccc(O)cc1)NC(=O)[C@@H]1CC=CC[C@H](N)C(=O)N[C@@H](CCCCN)C(=O)N[C@H](CCCCN)C(=O)N1)C(=O)O [compound 54, c[G(All)KK*G(All)]YL] (H-[AllylGly]K[dK][AllylGly]YL-OH; staple 1-4) | > 100000 | 321 | >311.9
CC(C)C[C@H](NC(=O)[C@H](Cc1ccc(O)cc1)NC(=O)[C@H]1CC=CC[C@H](N)C(=O)N[C@@H](CCCCN)C(=O)N[C@@H](CCCCN)C(=O)N1)C(=O)O [compound 40, c[G(All)KKG*(All)]YL] (H-[AllylGly]KK[dAllylGly]YL-OH; staple 1-4) | > 100000 | 1200 | >85
NCCCC[C@@H]1NC(=O)CCC=CC[C@@H](C(=O)N[C@@H](Cc2ccc(Br)cc2)C(=O)N[C@@H](CC2CCCC2)C(=O)O)NC(=O)[C@H](CCCCN)NC1=O [compound 134, cK([Pentenoyl)KG(All)]F(4-bromo)A (cyclopentyl)] | > 100000 | 17.7 | 5650
CC(C)C[C@H](NC(=O)[C@H](Cc1ccc(O)cc1)NC(=O)[C@@H]1CC=CCCC[C@@](C)(N)C(=O)N[C@@H](CCCCN)C(=O)N[C@@H](CCCCN)C(=O)N1)C(=O)O [compound 90, c[G*(alpha-Me-(4-Pentenyl))KKG(All)]YL] (H-[R5]KK[AllylGly]YL-OH; staple 1-4) | > 100000 | 76.9 | >1300
CC(C)C[C@H](NC(=O)[C@@H](Cc1c[nH]c2ccccc12)NC(=O)[C@@H]1CC=CC[C@H](N)C(=O)N[C@@H](CCCCN)C(=O)N[C@@H](CCCCN)C(=O)N1)C(=O)O [compound 43, c[G(All)KKG(All)]W*L] (H-[AllylGly]KK[AllylGly][dW]L-OH; staple 1-4) | > 100000 | 968 | >103.3
CC(C)C[C@H](NC(=O)[C@H](Cc1ccccc1)NC(=O)[C@@H]1CC=CC[C@H](N)C(=O)N[C@@H](CCCCN)C(=O)N[C@@H](CCCCN)C(=O)N1)C(=O)O [compound 76, c[G(All)KKG(All)FL] (H-[AllylGly]KK[AllylGly]FL-OH; staple 1-4) | > 100000 | 85.1 | >1175
CC(C)C[C@H](NC(=O)[C@H](Cc1ccc(O)cc1)NC(=O)[C@@H]1CC=CC[C@@H](N)C(=O)N[C@@H](CCCCN)C(=O)N[C@@H](CCCCN)C(=O)N1)C(=O)O [compound 41, c[G*(All)KKG(All)]YL] (H-[dAllylGly]KK[AllylGly]YL-OH; staple 1-4) | > 100000 | 113 | >889
CC(C)C[C@H](NC(=O)[C@H](Cc1ccc(O)cc1)NC(=O)[C@H]1NC(=O)[C@H](CCCCN)NC(=O)[C@H](CCCCN)NC(=O)[C@@H](N)CSSC1(C)C)C(=O)O [compound 153, c[CKKPen]YL] (H-CKK[Pen]YL-OH; disulfide 1-4) | > 100000 | 34.8 | 2871
CC(C)C[C@H](NC(=O)[C@H](Cc1ccc(O)cc1)NC(=O)[C@@H]1CC=CC[C@H](N)C(=O)N[C@H](CCCCN)C(=O)N[C@@H](CCCCN)C(=O)N1)C(=O)O [compound 82, c[G(All)K*KG(All)]YL] (H-[AllylGly][dK]K[AllylGly]YL-OH; staple 1-4) | > 100000 | 621 | >161
CC(C)C[C@H](NC(=O)[C@@H](CCCCN)NC(=O)[C@@H]1CC=CC[C@H](N)C(=O)N[C@@H](CCCCN)C(=O)N[C@@H](CCCCN)C(=O)N1)C(=O)O [compound 48, c[G(All)KKG(All)]K*L] (H-[AllylGly]KK[AllylGly][dK]L-OH; staple 1-4) | > 100000 | 10100 | >10
CC(C)C[C@H](NC(=O)[C@H](CC1CCCC1)NC(=O)[C@@H]1CC=CC[C@H](N)C(=O)N[C@@H](CCCCN)C(=O)N[C@@H](CCCCN)C(=O)N1)C(=O)O [compound 142, c[G(All)KKG(All)]A (cyclopentyl)L] (H-[AllylGly]KK[AllylGly][Ala(cPent)]L-OH; staple 1-4) | > 100000 | 204 | 490
CC(C)C[C@H](NC(=O)[C@H](Cc1ccc(O)cc1)NC(=O)[C@@H]1CCC(=O)NCC[C@H](N)C(=O)N[C@@H](CCCCN)C(=O)N[C@@H](CCCCN)C(=O)N1)C(=O)O [compound 99, c[DabKKE]YL] (H-[Dab]KKEYL-OH; lactam 1-4) | > 100000 | 11000 | >9
CC(C)C[C@H](NC(=O)[C@H](Cc1ccccn1)NC(=O)[C@@H]1CC=CC[C@H](N)C(=O)N[C@@H](CCCCN)C(=O)N[C@@H](CCCCN)C(=O)N1)C(=O)O [compound 165, c[G(All)KKG(All)]A(2-pyridyl)L] (H-[AllylGly]KK[AllylGly][2Pal]L-OH; staple 1-4) | > 100000 | 509 | 20
CC(C)C[C@H](NC(=O)[C@H](Cc1ccc(O)cc1)NC(=O)[C@@H]1CC=CC[C@H](N)C(=O)N[C@@H](CCCCCN)C(=O)N[C@@H](CCCCCN)C(=O)N1)C(=O)O [compound 151, c[G(All)K(homo)K (homo)G(All)]YL] (H-[AllylGly][hLys][hLys][AllylGly]YL-OH; staple 1-4) | > 100000 | 104 | 962
CC(C)C[C@H](NC(=O)[C@H](Cc1ccc(O)cc1)NC(=O)[C@@H]1CC=CC[C@H](N)C(=O)N[C@@H](CCCCN)C(=O)N[C@@H](Cc2c[nH]cn2)C(=O)N1)C(=O)O [compound 55, c[G(All)KHG(All)]YL] (H-[AllylGly]KH[AllylGly]YL-OH; staple 1-4) | > 100000 | 570 | >175
CC(C)C[C@H](NC(=O)[C@H](Cc1ccc(Br)cc1)NC(=O)[C@@H]1CC=CCCC(=O)N[C@@H](CCCCN)C(=O)N[C@@H](CCCCN)C(=O)N1)C(=O)O [compound 131, c[K(pentenoyl)KG(All)](4-bromo)L] | > 100000 | 27.4 | 3650
CCCC[C@@H]1NC(=O)[C@@H](N)CC=CC[C@@H](C(=O)N[C@@H](Cc2ccc(O)cc2)C(=O)N[C@@H](CC(C)C)C(=O)O)NC(=O)[C@H](CCCCN)NC1=O [compound 85, c[G(All)NleKG(All)]YL] (H-[AllylGly][Nle]K[AllylGly]YL-OH; staple 1-4) | > 100000 | 1070 | >93
